What was measured:
[1] = test system: memory loss induced by an acute administration of scopolamine (ESC); test: Y-maze, short-term spatial memory, acute scopolamine (ESC) model; type: in vivo, mice
Experimental: Young male OF-1 mice (20-25 g), supplied by the National Center for the Laboratory Animals Production (CENPALAB, Cuba), were used. Before the experiment, the animals were adapted for seven days to laboratory conditions (controlled temperature 25±2° C., relative humidity 60±10% and light/dark cycles of 12 h). During this period, and during the experiment, the animals received ad libitum water and a standard diet for rodents supplied by CENPALAB. All procedures were carried out in accordance with the European Commission guidelines for the use and care of laboratory animals and approved by the Committee for the Care of Research Animals. The minimum number of animals and duration of observations required to obtain consistent data was used.
At the end of the adaptation period, the animals were randomly distributed according to their body weights in 5 experimental groups of 12 animals per group. Scopolamine hydrobromohydrate (ESC, Sigma Aldrich) was used to induce cognitive deficit, which was dissolved in physiological saline and administered intraperitoneally (ip) at a dose of 1.5 mg/kg, 30 minutes before the test (Miranda H F et al. in. J. Biomed. Sci., 2014 21 (1): 62-62). The doses of compound 3 used were 0.1, 1, 10 and 20 mg/kg of body weight. The compound was formulated using carboxymethyl cellulose (CMC). The administration scheme was designed as follows:
Group 1 (negative control) with normal cognitive function. Two administrations with an interval of 30 minutes with vehicle (5% CMC) by oral route and saline solution by i.p. route, respectively.
Group 2 (positive control) with cognitive dysfunction. Two administrations with an interval of 30 minutes, the first with vehicle (5% CMC), the second with ESC 1 mg/kg.
Group 3, 4, 5 and 6 treated with 3 (0.1, 1, 10 and 20 mg/kg). Two administrations with an interval of 30 minutes, the first with 3 at the dose corresponding to each group, the second with ESC 1 mg/kg. The behavioral evaluation was carried out 30 minutes after this second administration.
The study of short-term spatial memory was carried out through the study of novel spatial preference, using the Y-maze behavioral paradigm (40 cm long×9 cm wide×16 cm high) with extra-labyrinthine tracks around of the maze. The test consisted of two trials separated by an interval of 2 hours. In the first training test (acquisition), the mice were placed in the center of the maze and facing the end of one of the arms whose selection was random. After being positioned, they were allowed to explore the maze for 10 minutes with one of the arms closed (novel arm). At the end of this test, the mice were returned to their original cage until the second test (recovery), during which they could freely explore the three arms of the maze for 5 minutes. The total residence time (exploration) in each arm was measured and analyzed from video recordings. The entrance to the arm was defined as the entrance of the four legs of the animal in said arm. The residence time (sec) in each arm during the recovery test of the learned task was used for the statistical analysis. The maze was cleaned with 70% ethanol between runs. All mice were transported to the behavioral testing room in their home cages at least 1 day prior to testing. The experiments were carried out between 8:00 am and 12:30 pm.
All data are expressed as the mean±standard error of the mean (SEM). The Morris water maze data was analyzed in two ways. Escape latencies in the visible platform training phase were analyzed using a two-factor ANOVA (treatment×trial). For the study of long-term memory, the last escape latency value of the training phase with the visible platform (D1 V4) and the first value of the test with the hidden platform performed 24 h later (D2T1) were used. Mice with intact long-term memory capacity should quickly reach the hidden platform in the first test. A scoring system was generated with the difference D2T1−D1 V4 and with the ratio D2T1/D1V4. […]

[2] = test system: mitochondria isolated from rat liver; test: Mitochondrial swelling induced by Ca2+ and Pi (absorbance 540 nm); type: biochemical; conditions: induced by 50 μmol/L Ca2+ and 2 mmol/L Pi; similar concentrations (0.1-100 μmol/L)
From the text: In this case, it was observed that in the control group (in the presence of Ca^2+) the maximum absorbance values are shown, as a measure of maximum swelling. […] These effects correspond to the observed effects on the dissipation of the mitochondria membrane potential.
Isolation of rat mitochondria: Mitochondria were isolated by the classical method of differential centrifugation from the liver of male Wistar rats (Mirandola S R, et al., in J Neurosci Res 2010; 88: 630-39). […]
(§1) Mitochondrial membrane potential and ROS were determined by spectrophotometry, using as fluorescent probes, respectively, safranin (10 μmol/L) (Zanotti A., and Azzone G F in Archives of Biochemistry and Biophysics 1980, 201 (1), 255-265) and Amplex Red (Molecular Probes, OR, Eugene) in the presence of horseradish peroxidase (1 IU/mL) (Votyakova and Reynolds, in J Neurochem. 2001, 79 (2), 266-77). Measurements were made in a Hitachi fluorescence spectrophotometer, model F-4500 (Tokyo, Japan) at λexc 495/λem 586 nm (safranin) and at λexc 563/λem 587 nm (Amplex Red). […]
Data analysis: In all cases, the normal distribution and homogeneity of variances of the data were evaluated using the Kolmogorov Smirnov and Levene tests, respectively. […]

[3] = test system: mitochondria isolated from rat liver; test: Production of H2O2 / reactive oxygen species (Amplex Red) in isolated mitochondria; type: biochemical; conditions: dose range tested (0.1-100 μmol/L)
Experimental: Isolation of rat mitochondria: Mitochondria were isolated by the classical method of differential centrifugation from the liver of male Wistar rats (Mirandola S R, et al., in J Neurosci Res 2010; 88: 630-39).
Incubation procedures: Mitochondria were energized with 5 mmol/L potassium succinate (plus 2.5 μmol/L rotenone) in standard incubation medium containing 125 mmol/L sucrose, 65 mmol/L KCl and 10 mmol/L of HEPES-KOH, pH 7.4, at 30° C.
as §1, with “Red). These experiments were carried out in the presence of 0.1 mmol/L of EGTA and the evaluated compound was N-[4-(1-naphthylamino)-4-oxobutanoyl]-β-alanine (1) in a concentration range of 0.1 to 100 μmol/L. Mitochondrial swelling was estimated spectrophotometrically from the decrease in absorbance at 540 nm, using a Hitachi spectrophotometer, Model U-2910 (Japan).” for “Red).”

## COc1cc2c(cc1OC)C(=O)C(CC1CCN(Cc3ccccc3)CC1)C2 (centres unmarked) [donepezil, reference compound]
[1]; donepezil 1 mg/kg, ip, 30 minutes before the test
  deficit induced by ESC in Y-maze: also reversed the deficit induced by ESC
[1]; donepezil group vs ESC
  residence time in the novel arm: significantly longer than that of ESC

## O=C(O)CCNC(=O)CCC(=O)Nc1cccc2ccccc12 [compound 1, N-[4-(1-naphthylamino)-4-oxobutanoyl]-β-alanine]
[2]
  mitochondrial swelling (absorbance at 540 nm): reverses the effect of Ca^2+-induced swelling
[3]
  production of hydrogen peroxide (H2O2): protects against H2O2 production

## CN1[C@@H]2C[C@@H](OC(=O)[C@H](CO)c3ccccc3)C[C@H]1[C@@H]1O[C@@H]12 [ESC, Scopolamine hydrobromohydrate, reference compound]
[1]; ESC group (control group 133.8±9.3 sec), p<0.001
  residence time in the novel arm: 98.8 ± 4.2 s
